Measured values taken from article PMC1968247 (British Journal of Cancer, 1993).
Read-outs that look alike come from different tables or passages of the source.

Tests used:
MAC 13 tumours = test: Anti-tumour activity against MAC 13 (tumour weight); format: in vivo, NMRI mice; details: 60 mg kg-1 ip
Experimental: (§1) Br. J. Cancer (1993), 67, 441 446 t? […] Bibby Clinical Oncology Unit, University of Bradford, West Yorkshire, BD7 JDP, UK. […] In vivo anti-tumour activity was examined against three transplantable adenocarcinomas of the mouse colon and in vivo bone marrow toxicity was assessed using a spleen colony forming unit assay. The pharmacokinetic behaviour of the drug in vivo and drug stability in vitro was analysed by gas chromatography with electron capture detection. […] Clinical responses to cytotoxic agents have been largely restricted to the haematological malignancies while the majority of human solid tumours have remained refractory to chemotherapy (Marsoni et al., 1987). […] However, their clinical usefulness has been limited by non-selective host toxicity, particularly myelosuppres- sion. The chloroethylnitrosoureas decompose spontaneously in aqueous solution to generate reactive intermediates that are capable of alkylating and carbamoylating nucleophilic targets (Cheng et al., 1972). Alkylation reactions consist of chloroethylations and hydroxyethylations of DNA (Tong et al., 1982). Chloroethylation of 06-guanine with subsequent cross-link formation is considered to be the most important cytotoxic reaction (Lown et al., 1978) while hydroxyethyla- tion reactions are thought to be responsible for their mutagenic and carcinogenic effects (Pelfrene et al., 1976; Swenson et al., 1979). […] In the search for other types of compound that would chloroethylate DNA, a series of 2-haloethylsulphonates was synthesised (Shealy et al., 1983). […] Recently, the NCI has introduced a new disease-orientated screening programme based on the assessment of the in vitro cytotoxicity of a panel of cell lines representing the common clinical forms of human cancers using a colorimetric assay (Boyd, 1989). […] One reason for this discrepancy is that the in vitro tests ignore the potential role played by the pharmacokinetic behaviour and bioavailability of a drug in determining tumour responses in vivo. […] It has been used extensively as part of the pre-clinical evaluation of new anti-cancer agents within the Screening and Pharmacology Group of the EORTC (Bibby et al., 1988b). The feasibility of performing minimal toxicity studies in conjunction with anti-tumour studies has been described (Bibby et al., 1988b). […] Correspondence: A.M. Matthew. Received 6 December 1991; and in revised form 13 October 1992. Br. J. Cancer (1993), 67, 441-446 '?" Macmillan Press Ltd., 1993 442 A.M. MATIHEW et al. ethylating agents with improved therapeutic indices. The assessment of stem cell survival has been recommended to study irreversible cytotoxic bone marrow injury (Schofield, 1986) and this can be performed readily in mice using a spleen colony forming unit assay. […] In vitro activity was assessed against a panel of established murine and human tumour cell lines while in vivo anti-tumour responses were evaluated against an ascitic tumour, MAC 15A, and two solid subcutaneous (sc) tumours, MAC 13 and MAC 26. MAC 13 is relatively nitrosourea-sensitive due to a low level of the repair enzyme 06-alkylguanine-DNA alkyltransferase while MAC 26 is relatively nitrosourea-resistant due to a high repair enzyme level (Lunn et al., 1989). In vivo bone marrow toxicity and pharmacokinetic studies and in vitro drug stability studies were performed in conjunction with the anti-tumour studies. […] Chlorozotocin was dissolved in 10% dimethylsulphoxide (DMSO)/arachis oil. Drug solutions were prepared at an appropriate concentration for the desired in vivo dose to be administered in 0.1 ml per 10 g body weight by intra- peritoneal (ip) or intravenous (iv) injection and for the desired final concentration in vitro to be achieved upon a 1 in 10 dilution. […] Chemosensitivity testing In vitro chemosensitivity was assessed using a modified micro-tetrazolium (MTT) assay (Twenty- man & Luscombe, 1987).

MAC 15A ascites tumour = test: Anti-tumour activity against MAC 15A (median survival time); format: in vivo, NMRI mice; details: 60 mg kg-1 ip
Experimental: as §1

[1] = Maximum tolerated dose, full dose range to the point of toxicity; details: NMRI, mouse, in vivo, ip
Experimental: Br. J. Cancer (1993), 67, 441 446 t? […] Bibby Clinical Oncology Unit, University of Bradford, West Yorkshire, BD7 JDP, UK. […] In vivo anti-tumour activity was examined against three transplantable adenocarcinomas of the mouse colon and in vivo bone marrow toxicity was assessed using a spleen colony forming unit assay. The pharmacokinetic behaviour of the drug in vivo and drug stability in vitro was analysed by gas chromatography with electron capture detection. […] Clinical responses to cytotoxic agents have been largely restricted to the haematological malignancies while the majority of human solid tumours have remained refractory to chemotherapy (Marsoni et al., 1987). […] However, their clinical usefulness has been limited by non-selective host toxicity, particularly myelosuppres- sion. The chloroethylnitrosoureas decompose spontaneously in aqueous solution to generate reactive intermediates that are capable of alkylating and carbamoylating nucleophilic targets (Cheng et al., 1972). Alkylation reactions consist of chloroethylations and hydroxyethylations of DNA (Tong et al., 1982). Chloroethylation of 06-guanine with subsequent cross-link formation is considered to be the most important cytotoxic reaction (Lown et al., 1978) while hydroxyethyla- tion reactions are thought to be responsible for their mutagenic and carcinogenic effects (Pelfrene et al., 1976; Swenson et al., 1979). […] The assessment of stem cell survival has been recommended to study irreversible cytotoxic bone marrow injury (Schofield, 1986) and this can be performed readily in mice using a spleen colony forming unit assay. […] In vitro activity was assessed against a panel of established murine and human tumour cell lines while in vivo anti-tumour responses were evaluated against an ascitic tumour, MAC 15A, and two solid subcutaneous (sc) tumours, MAC 13 and MAC 26. […] Chemosensitivity testing In vitro chemosensitivity was assessed using a modified micro-tetrazolium (MTT) assay (Twenty- man & Luscombe, 1987).

MAC 26 tumours = details: for Tumour growth delay: MAC 26; for Survivors: MAC 26 bearers
Experimental: as §1

bone marrow = details: 24 h
Experimental: as §1

Compound: O=NN(CCCl)C(=O)N[C@H]1C(O)O[C@H](CO)[C@@H](O)[C@@H]1O (stereo partly drawn) [Chlorozotocin, reference compound]
- % Tumour weight inhibition (MAC 13 tumours): 59.2%
- T/C% (MAC 15A ascites tumour): 288%
- MTD [1]: 60 mg/kg
- Tumour growth delay (MAC 26 tumours; 60 mg kg-1 ip): 0 days
- Tumour growth delay (MAC 26 tumours; 80 mg kg-1 ip): Toxic
- Survivors (MAC 26 tumours; 60 mg kg-1 ip): 9/9
- Survivors (MAC 26 tumours; 80 mg kg-1 ip): 3/9
- Survival fraction (bone marrow; 15 mg kg-1 ip): 0.86
- Survival fraction (bone marrow; 30 mg kg-1 ip): 0.80
